Test results reported in US7645802B2 (Biovail Laboratories International SRL., priority 2005, dated 2010).

System: Rj: Wistar (Han) rats
Test: EEG trace monitoring and behavioural observations in conscious rats
Protocol: The effects of the two bupropion salt forms hydrochloride and hydrobromide on central nervous system activity after intraperitoneal administration were evaluated by means of EEG trace monitoring in conscious rats. The method which detects electroencephalographic activity in conscious rats follows that described by Dürmüller et al., (2000) Vigilance-Controlled Quantified EEG in Safety Pharmacology, Current Protocols in Pharmacology Unit 10.6. The study was conducted at Porsolt & Partners Pharmacology, Research Laboratory, Z. A. des Suhards—B.P. 9, 53940 Le Genest-Saint-Isle, France.
Substances: The formulation excipient used was physiological saline (Laboratoire Aguettant). […] All substances were stored in a dry, dark, controlled access area and maintained at a controlled ambient temperature of about 20±3° C. The vehicle solutions were stored at about +4° C. The substances were administered in a volume of 5 ml/kg body weight. The doses of bupropion hydrochloride are expressed in mg/kg of salt. […] The substances were dissolved in physiological saline and prepared freshly at each day of experimentation.
Test systems: The rats used were male Rj: Wistar (Han) rats, weighing from about 280 g to 324 g at the time of implantation. They were supplied by Elevage Janvier, 53940 Le Genest-Saint-Isle, France. […] Upon delivery to the laboratory, the animals were housed in groups of 5 animals maximum, in macrolon cages (44×28×19 cm) containing wood litter (Litalabo—SPPS, 95100 Argenteuil, France). The animals had free access to food (Code 113—SAFE, 89290 Augy, France) and tap water. The animal house was maintained under artificial lighting (12 hrs) from 7:00 to 19:00 in a controlled ambient temperature of about 21±3° C. and relative humidity maintained at from about 30% to about 80%. […] Except during the test sessions, the animals had free access to food (Code 113) and tap water. The animals were identified by marking the connector fixed on the animal's head with an indelible pen. Rats were sacrificed at the end of the experiments by lethal injection of pentobarbital (>100 mg/kg i.p.). Animals were not submitted to necropsy. There is no reason to expect that contaminants were present in the feed, water or bedding at levels capable of interfering with the results of the tests. No checks were performed for this particular study.
Electrode implantation procedure: Implantation surgery was carried out under aseptic conditions. Rats, anesthetized with sodium pentobarbital (60 mg/kg i.p., plus supplementary doses of from about 5 mg/kg to about 10 mg/kg to maintain anesthesia until surgery completion) were implanted with 2 surface EEG electrodes, comprised of miniature titanium screws, placed bilaterally over the frontal-parietal cortex and 2 depth electrodes, comprised of twisted platinium-iridium wires, placed stereotaxically into the hippocampus CA3 area (Paxinos and Watson coordinates interaural: AP+5.0 mm, L±2.5 mm, V+7.0 mm). An additional screw, placed over the right occipital cortex, served as ground electrode. The electrodes were connected to small plugs and the whole assembly was secured on the skull with dental acrylate.
Apparatus: For the EEG recording, the animals were placed in rectangular Plexiglas cubicles (30×10×25 cm) mounted on treadmills. Five recording units were run in parallel. A turning commutator was attached above the centre of each cubicle, about 30 cm above walking level. On one side, it was connected via an electrically shielded multicore cable to the animal and on the other side to the signal conditioning system (Coulbourn Model V75-01). The system filters were set for all channels to high pass 1 Hz and low pass 150 Hz, respectively. The amplification levels were kept at from 1000× to 10000×. The EEG signals were acquired and processed on a PC (DELL GX620-2800) installed with a 16 channel 200 kHz/12-bit AD acquisition card (NI PCI-6023E).

Br.CC(NC(C)(C)C)C(=O)c1cccc(Cl)c1 (stereo not shown) [bupropion hydrobromide]
abnormal behavior (60 mg/kg i.p.): One rat in the bupropion hydrobromide group had a fatal whole body clonus immediately after administration | EEG ANALYSIS Burst cx (rat, in vivo, ip, 10 mg/kg): − | EEG ANALYSIS Burst hipp (rat, in vivo, ip, 10 mg/kg): − | EEG ANALYSIS Complex spike cx (rat, in vivo, ip, 10 mg/kg): − | EEG ANALYSIS Complex spike hipp (rat, in vivo, ip, 10 mg/kg): − | EEG ANALYSIS High amplitude fast frequency cx (rat, in vivo, ip, 10 mg/kg): − | EEG ANALYSIS High amplitude fast frequency hipp (rat, in vivo, ip, 10 mg/kg): − | EEG ANALYSIS High frequency burst activity cx (rat, in vivo, ip, 10 mg/kg): − | EEG ANALYSIS High frequency burst activity hipp (rat, in vivo, ip, 10 mg/kg): − | EEG ANALYSIS Long seizure activity cx (rat, in vivo, ip, 10 mg/kg): − | EEG ANALYSIS Long seizure activity hipp (rat, in vivo, ip, 10 mg/kg): − | EEG ANALYSIS Post ictual activity cx (rat, in vivo, ip, 10 mg/kg): − | EEG ANALYSIS Post ictual activity hipp (rat, in vivo, ip, 10 mg/kg): − | EEG ANALYSIS Repetitive isolated spike cx (rat, in vivo, ip, 10 mg/kg): − | EEG ANALYSIS Repetitive isolated spike hipp (rat, in vivo, ip, 10 mg/kg): − | EEG ANALYSIS Sharp waves hipp (rat, in vivo, ip, 10 mg/kg): − | EEG ANALYSIS Short seizure activity cx (rat, in vivo, ip, 10 mg/kg): − | EEG ANALYSIS Short seizure activity hipp (rat, in vivo, ip, 10 mg/kg): − | EEG ANALYSIS Spike-and-waves cx (rat, in vivo, ip, 10 mg/kg): − | EEG ANALYSIS Spike-and-waves hipp (rat, in vivo, ip, 10 mg/kg): − | EEG ANALYSIS Sharp waves cx (rat, in vivo, ip, 30 mg/kg): − | EEG ANALYSIS Sharp waves hipp (rat, in vivo, ip, 30 mg/kg): − | EEG ANALYSIS Spike-and-waves hipp (rat, in vivo, ip, 30 mg/kg): − | EEG ANALYSIS Sharp waves cx (rat, in vivo, ip, 60 mg/kg): − | EEG ANALYSIS Sharp waves hipp (rat, in vivo, ip, 60 mg/kg): − | EEG ANALYSIS Spike-and-waves cx (rat, in vivo, ip, 60 mg/kg): − | EEG ANALYSIS Spike-and-waves hipp (rat, in vivo, ip, 60 mg/kg): − | EEG ANALYSIS Sharp waves cx (rat, in vivo, ip, 100 mg/kg): − | EEG ANALYSIS Sharp waves hipp (rat, in vivo, ip, 100 mg/kg): − | EEG ANALYSIS Spike-and-waves cx (rat, in vivo, ip, 100 mg/kg): − | EEG ANALYSIS Spike-and-waves hipp (rat, in vivo, ip, 100 mg/kg): −
